Data on nine compounds can be found in BindingDB's records for doi:10.1016/j.bmcl.2009.12.085 (Bristol-Myers Squibb Pharmaceutical Research and Development, 2010).

Bounds are passed on as bounds.

Chain of Potassium voltage-gated channel subfamily A member 5 (P22460 whole entry): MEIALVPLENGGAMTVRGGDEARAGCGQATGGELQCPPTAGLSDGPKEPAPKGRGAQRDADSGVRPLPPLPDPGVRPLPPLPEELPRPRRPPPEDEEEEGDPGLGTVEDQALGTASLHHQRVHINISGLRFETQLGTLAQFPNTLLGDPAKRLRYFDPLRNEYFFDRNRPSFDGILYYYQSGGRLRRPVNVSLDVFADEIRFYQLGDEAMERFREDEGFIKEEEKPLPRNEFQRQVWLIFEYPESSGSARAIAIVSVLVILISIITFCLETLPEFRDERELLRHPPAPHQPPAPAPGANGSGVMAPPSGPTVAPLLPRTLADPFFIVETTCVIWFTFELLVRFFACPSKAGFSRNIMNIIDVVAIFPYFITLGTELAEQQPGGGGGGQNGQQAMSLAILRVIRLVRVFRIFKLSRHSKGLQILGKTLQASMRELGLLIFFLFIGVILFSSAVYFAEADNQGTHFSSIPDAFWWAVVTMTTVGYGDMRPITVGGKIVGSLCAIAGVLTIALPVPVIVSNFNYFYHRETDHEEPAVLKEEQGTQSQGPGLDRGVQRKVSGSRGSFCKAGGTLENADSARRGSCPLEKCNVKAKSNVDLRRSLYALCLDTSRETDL

This test concerns the target Potassium voltage-gated channel subfamily A member 5 (Homo sapiens, UniProt P22460). The test is described as follows: Inhibition of human Kv1.5 channel expressed in mouse L929 cells.
In the case of `CC1=Nc2ccnn2C(c2ccc(Cl)c(Cl)c2)C1C(=O)N1CCC[C@H]1c1n[nH]c(=O)n1C` (stereo partly drawn) [3-((2S)-1-(7-(3,4-dichlorophenyl)-5-methyl-4,7-dihydropyrazolo[1,5-a]pyrimidine-6-carbonyl)pyrrolidin-2-yl)-4-methyl-1H-1,2,4-triazol-5(4H)-one], the half-inhibitory concentration (IC50) – broadly, the concentration that gives 50% inhibition – was greater than 1000 nM. To `COC(=O)[C@@H]1CCCN1C(=O)C1C(C)=Nc2ccnn2C1c1ccc(Cl)c(Cl)c1` (stereo partly drawn) [(2S)-methyl 1-(7-(3,4-dichlorophenyl)-5-methyl-4,7-dihydropyrazolo[1,5-a]pyrimidine-6-carbonyl)pyrrolidine-2-carboxylate] belongs 150 nM; to `CC1=Nc2ccnn2C(c2ccc(Cl)c(Cl)c2)C1C(=O)N1CCCC1c1ccc(F)cc1` (centres undefined) [(7-(3,4-dichlorophenyl)-5-methyl-4,7-dihydropyrazolo[1,5-a]pyrimidin-6-yl)(2-(4-fluorophenyl)pyrrolidin-1-yl)methanone], 70 nM.

Turning to `CC1=Nc2ccnn2C(c2ccc(Cl)c(Cl)c2)C1C(=O)N1CCCC1c1ccccn1` (centres undefined) [(7-(3,4-dichlorophenyl)-5-methyl-4,7-dihydropyrazolo[1,5-a]pyrimidin-6-yl)(2-(pyridin-2-yl)pyrrolidin-1-yl)methanone], the 50% inhibitory concentration (IC50) amounted to 660 nM. Compound `CC1=Nc2ccnn2C(c2ccc(Cl)c(Cl)c2)C1C(=O)N1CCCC1c1cccnc1` (centres undefined) [(7-(3,4-dichlorophenyl)-5-methyl-4,7-dihydropyrazolo[1,5-a]pyrimidin-6-yl)(2-(pyridin-3-yl)pyrrolidin-1-yl)methanone] returned a half-maximal inhibitory concentration (IC50) greater than 1000 nM.

Compound `CC1=Nc2ccnn2C(c2ccc(Cl)c(Cl)c2)C1C(=O)N1CCCC1c1ccccc1` (centres undefined) [(7-(3,4-dichlorophenyl)-5-methyl-4,7-dihydropyrazolo[1,5-a]pyrimidin-6-yl)(2-phenylpyrrolidin-1-yl)methanone] gave an IC50 of 150 nM. `CC1=Nc2ccnn2C(c2ccc(Cl)c(Cl)c2)C1C(=O)N1CCC[C@H]1c1nnn[nH]1` (stereo partly drawn) [((S)-2-(1H-tetrazol-5-yl)pyrrolidin-1-yl)(7-(3,4-dichlorophenyl)-5-methyl-4,7-dihydropyrazolo[1,5-a]pyrimidin-6-yl)methanone] returned an IC50 greater than 1000 nM. Turning to `CC1=Nc2ccnn2C(c2ccc(Cl)c(Cl)c2)C1C(=O)N1CCC[C@H]1c1nnc[nH]1` (stereo partly drawn) [((S)-2-(4H-1,2,4-triazol-3-yl)pyrrolidin-1-yl)(7-(3,4-dichlorophenyl)-5-methyl-4,7-dihydropyrazolo[1,5-a]pyrimidin-6-yl)methanone], the half-maximal inhibitory concentration (IC50) is greater than 1000 nM. To `CC1=Nc2ccnn2C(c2ccc(Cl)c(Cl)c2)C1C(=O)N1CCC[C@H]1c1nnc(N)s1` (stereo partly drawn) [((S)-2-(5-amino-1,3,4-thiadiazol-2-yl)pyrrolidin-1-yl)(7-(3,4-dichlorophenyl)-5-methyl-4,7-dihydropyrazolo[1,5-a]pyrimidin-6-yl)methanone] belongs greater than 1000 nM.
